# Reference: patent US20130324522A1, “INSECT ODORANT RECEPTOR ANTAGONISTS” (THE ROCKEFELLER UNIVERSITY, priority 2010, published 2013)
# Like-named read-outs stand apart in the source and are kept apart here.
# Tests used:
# Format in all cases: cell-based
# [1] = molecular target: OR8/OR7 (Anopheles gambiae, UniProt Q7PUT5+Q7QCC7); assay: Ca2+-imaging of stable HEK293T cell line OR8/OR7; conditions: for inhibition at 4 µM: HEK-293T, read-out: Percent Inhibition OR8 OR7
# Protocol: (§1) Full-length cDNAs for mosquito (Anopheles gambiae) odorant receptor (OR1, OR2, OR7, OR8, OR28), and fly (Drosophila melanogaster) odorant receptor (Or47a, Or83b), mouse TRP channel (TRPM8), and mouse serotonin receptor (5HT3) were obtained and subcloned into mammalian expression vectors. The following mammalian expression vectors were used:
# (§2) Stable cell lines OR1/OR7, OR2/OR7, OR8/OR7, OR10/OR7, OR28/OR7 and TRPM8 were generated from HEK293T cells. HEK293T-based cell lines were cultured in DMEM supplemented with these additional antibiotics: 6 μg/mL blasticidin and 1 μg/mL puromycin, with the exception of the TRPM8 cell lines, which was cultured in DMEM supplemented with 1 μg/mL puromycin.
# (§3) Cells were trypsinized and split into 35 mm dishes one day before transfection. Confluent cells (60-70%) in 35 mm dishes were transfected with 1 μg of insect OR(X) plasmids in pME18s-bla and 1 μg of OR7-pME18s-puro using lipofectamine 2000. For Anopheles odorant receptors, two plasmids were co-transfected into HEK cells: the ligand-specific receptor (OR1, OR2, OR8, OR28) and the corresponding olfactory co-receptor: OR7. Cell lines containing TRPM8 were transfected with single plasmid.
# (§4) Stable cell lines were cultured in 10 cm dishes, and confluent cells (70-80%) were trypsinized. 10,000 cells/20 μL were transferred into each well of 384-well plates coated with poly-D-lysine, and cultured for 2 days. For Flip-In T-Rex cells (cell lines expressing Or47a/Or83b and 5HT3), 5 μL of tetracycline (5 μg/mL) were added 1 day before the assay. 20 μL of Ca-4 dye was loaded into each well for 1.5 hr at room temperature in the dark, and the dye-loaded plates were subjected to Ca^2+-imaging using a Hamamatsu FDSS6000 real time fluorescence plate reader. Odorant solutions (9× final concentration) were prepared by dissolving 1M stock solutions into Hank's Buffered Salt Solution (HBSS), and 30 μL of odor solution was transferred to each well in 384-well plates.
# (§5) Compounds ([…] in DMSO) were stored in 384-well plates, and last two columns (32 wells total) contained only DMSO. 200 nL of small compounds were transferred into the odorant plates before the assay using the Perkin-Elmer Janus workstation. The odorant plates were spun down to remove air bubbles, and placed on the FDSS6000 plate loader, and 5 μL of odorant solution was applied to the cell plate on the FDSS6000. Ca^2+ increase was monitored with fluorescence at 525 nm by excitation at 485 nm.
# [2] = molecular target: OR10/OR7 (Anopheles gambiae, UniProt B5U0U7+Q7QCC7); assay: Ca2+-imaging of stable HEK293T cell line OR10/OR7; conditions: for inhibition at 4 µM: HEK-293T, read-out: Percent Inhibition OR10 OR7
# Sequence of OR10/OR7 (Q7QCC7 whole entry): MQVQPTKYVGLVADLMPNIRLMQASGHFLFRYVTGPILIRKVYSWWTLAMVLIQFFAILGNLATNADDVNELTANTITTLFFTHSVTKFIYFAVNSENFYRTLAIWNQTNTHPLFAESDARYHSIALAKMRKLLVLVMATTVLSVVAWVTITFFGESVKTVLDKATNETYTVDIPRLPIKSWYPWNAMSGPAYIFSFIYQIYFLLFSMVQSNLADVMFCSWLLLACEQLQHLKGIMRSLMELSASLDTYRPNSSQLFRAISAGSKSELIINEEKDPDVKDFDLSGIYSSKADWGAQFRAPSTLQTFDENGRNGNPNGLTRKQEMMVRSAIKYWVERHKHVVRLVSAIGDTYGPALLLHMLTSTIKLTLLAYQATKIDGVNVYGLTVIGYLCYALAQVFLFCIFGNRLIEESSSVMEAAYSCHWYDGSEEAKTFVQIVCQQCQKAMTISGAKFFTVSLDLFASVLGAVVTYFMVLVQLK
# Sequence of OR10/OR7 (B5U0U7 entry or part of it): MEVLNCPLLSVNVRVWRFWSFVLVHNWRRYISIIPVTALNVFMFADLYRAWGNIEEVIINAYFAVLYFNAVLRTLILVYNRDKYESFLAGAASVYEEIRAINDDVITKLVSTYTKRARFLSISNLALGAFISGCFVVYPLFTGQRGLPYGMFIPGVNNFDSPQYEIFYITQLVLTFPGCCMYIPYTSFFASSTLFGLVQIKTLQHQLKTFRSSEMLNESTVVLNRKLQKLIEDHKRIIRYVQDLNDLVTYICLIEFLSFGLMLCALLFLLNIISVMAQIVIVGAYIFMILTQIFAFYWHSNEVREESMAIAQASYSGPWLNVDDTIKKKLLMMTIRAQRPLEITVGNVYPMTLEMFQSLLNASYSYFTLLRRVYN
# Protocol: as §2
# After one day of incubation, the transfected cells were transferred into 10 cm dishes with DMEM containing antibiotics as follows: • 0.5 μg/mL of blasticidin for OR1/OR7, OR2/OR7, OR8/OR7, OR10/OR7, OR28/OR7 • 0.2 μg/mL of puromycin for TRPM8.
# as §4, §5
# [3] = molecular target: T1, mOREG (Mus musculus, UniProt Q920P2); assay: Ca2+-imaging, control receptor mOREG; conditions: read-out: Percent Inhibition mOREG
# T1 sequence (Q920P2 1-313): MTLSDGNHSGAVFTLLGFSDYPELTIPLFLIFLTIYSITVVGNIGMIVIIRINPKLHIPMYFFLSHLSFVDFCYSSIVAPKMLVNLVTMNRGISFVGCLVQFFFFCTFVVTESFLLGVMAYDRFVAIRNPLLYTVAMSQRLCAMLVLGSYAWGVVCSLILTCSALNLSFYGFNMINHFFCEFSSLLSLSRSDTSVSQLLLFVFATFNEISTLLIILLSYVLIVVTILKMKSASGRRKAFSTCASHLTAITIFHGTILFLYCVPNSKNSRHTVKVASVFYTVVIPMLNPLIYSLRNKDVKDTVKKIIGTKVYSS
# Protocol: as §4, with “plates. The last two columns of the plate (32 wells total) were used as control wells as follows: • negative control with HBSS buffer (16 wells) • positive control with ligands (16 wells).” for “plates.”
# as §5
# [4] = molecular target: T2, TRP channel (TRPM8) (Mus musculus, UniProt Q8R4D5); assay: Ca2+-imaging of stable HEK293T cell line TRPM8; conditions: for inhibition at 4 µM: HEK-293T, read-out: Percent Inhibition TRPM8
# T2 construct: Full-length cDNAs for mosquito (Anopheles gambiae) odorant receptor (OR1, OR2, OR7, OR8, OR28), and fly (Drosophila melanogaster) odorant receptor (Or47a, Or83b), mouse TRP channel (TRPM8); expressed in transfected cells
# T2 sequence (Q8R4D5 whole entry): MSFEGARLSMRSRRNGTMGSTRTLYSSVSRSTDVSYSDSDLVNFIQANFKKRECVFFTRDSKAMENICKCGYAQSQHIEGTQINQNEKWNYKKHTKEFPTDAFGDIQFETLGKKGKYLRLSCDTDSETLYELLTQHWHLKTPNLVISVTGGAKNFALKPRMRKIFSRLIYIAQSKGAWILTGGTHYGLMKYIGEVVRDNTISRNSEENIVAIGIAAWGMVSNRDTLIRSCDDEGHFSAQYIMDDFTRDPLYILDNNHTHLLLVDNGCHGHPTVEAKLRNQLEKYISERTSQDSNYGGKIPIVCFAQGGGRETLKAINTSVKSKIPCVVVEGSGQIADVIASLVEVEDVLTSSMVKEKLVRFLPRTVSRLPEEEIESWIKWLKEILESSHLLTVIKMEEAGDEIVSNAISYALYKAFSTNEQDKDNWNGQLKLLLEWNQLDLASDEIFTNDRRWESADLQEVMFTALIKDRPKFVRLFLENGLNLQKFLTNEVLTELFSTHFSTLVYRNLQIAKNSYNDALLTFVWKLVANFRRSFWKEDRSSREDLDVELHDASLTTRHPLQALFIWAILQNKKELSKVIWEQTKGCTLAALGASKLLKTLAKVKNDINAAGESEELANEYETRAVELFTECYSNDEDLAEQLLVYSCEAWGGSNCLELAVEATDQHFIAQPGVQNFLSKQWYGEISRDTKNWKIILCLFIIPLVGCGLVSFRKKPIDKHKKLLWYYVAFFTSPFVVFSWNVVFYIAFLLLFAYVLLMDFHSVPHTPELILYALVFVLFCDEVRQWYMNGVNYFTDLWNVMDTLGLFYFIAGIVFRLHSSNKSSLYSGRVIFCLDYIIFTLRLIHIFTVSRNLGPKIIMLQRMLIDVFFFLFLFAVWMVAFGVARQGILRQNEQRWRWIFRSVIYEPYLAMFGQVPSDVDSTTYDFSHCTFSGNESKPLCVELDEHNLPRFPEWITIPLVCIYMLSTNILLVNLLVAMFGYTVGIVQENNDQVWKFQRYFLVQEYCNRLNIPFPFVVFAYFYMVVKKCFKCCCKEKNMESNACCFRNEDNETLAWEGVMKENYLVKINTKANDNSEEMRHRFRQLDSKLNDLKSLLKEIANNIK
# Protocol: as §1, §2, §3, §4, §5
# [5] = ligand menthol 300 μM, read-out: IC50 TRPM8
# Sequence of OR8/OR7 (Q7QCC7 whole entry): as the sequence (Q7QCC7 whole entry) above
# Sequence of OR8/OR7 (Q7PUT5 entry or part of it): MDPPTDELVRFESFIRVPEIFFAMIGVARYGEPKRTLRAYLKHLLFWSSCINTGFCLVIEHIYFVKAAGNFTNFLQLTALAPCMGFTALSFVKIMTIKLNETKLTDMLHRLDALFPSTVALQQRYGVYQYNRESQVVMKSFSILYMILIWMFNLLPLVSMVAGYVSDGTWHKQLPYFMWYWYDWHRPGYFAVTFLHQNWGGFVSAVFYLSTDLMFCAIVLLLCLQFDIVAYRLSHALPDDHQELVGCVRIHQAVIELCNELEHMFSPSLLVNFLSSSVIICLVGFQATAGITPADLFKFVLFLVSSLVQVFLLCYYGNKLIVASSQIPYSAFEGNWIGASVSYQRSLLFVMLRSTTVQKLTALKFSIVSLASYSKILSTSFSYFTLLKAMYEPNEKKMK
SMILES,inhibition at 4 µM ([1]; compound applied at 4 μM),inhibition at 4 µM ([2]; compound applied at 4 μM),inhibition at 4 µM ([3]; compound applied at 4 μM),inhibition at 4 µM ([4]; compound applied at 4 μM),"IC50 ([2]; Table B, read-out: IC50 OR10)",further results
CCOC(=O)CCC(=O)N(CCc1ccccc1)CC(=O)Nc1cc(C(C)(C)C)nn1-c1ccccc1C [RU-0072462],< 25%,26 to 50%,< 25%,< 25%,–,–
COCCN(Cc1nccn1Cc1c(F)cccc1Cl)C(=O)CCc1ccccc1 [RU-0058550],< 25%,26 to 50%,26 to 50%,< 25%,–,–
O=C(c1ccco1)N(Cc1ccco1)Cc1nccn1Cc1ccccc1F [RU-0047694],51 to 74%,51 to 74%,< 25%,< 25%,< 100 nM,"IC50 ([1]; Table B, read-out: IC50 OR8): 100 to 1000 nM"
CCNc1nc(Cl)nc(NC(C)C)n1 [RU-T5],–,–,–,–,–,"IC50 [1]: < 2000 nM; IC50 [2]: 2000 to 20000 nM; IC50 [4, 5]: > 20000 nM"
COc1ccccc1CC(=O)N1CCOC(COc2ccc(C)cc2)C1 (stereo not drawn) [RU-0050390],< 25%,< 25%,< 25%,< 25%,–,–
Cc1cc(C)c(Cn2ccnc2CN(C(=O)c2ccccc2F)C(C)C)c(C)c1 [RU-0048001],26 to 50%,> 75%,26 to 50%,26 to 50%,< 100 nM,–
O=C(Cc1cccc(F)c1)N1CCOC(COCc2c(Cl)cccc2Cl)C1 (stereo not drawn) [RU-0050398],< 25%,< 25%,< 25%,< 25%,–,–
CCNc1nc(NC(C)C)nc(SC)n1 [RU-T3],–,–,–,–,–,"IC50 [1]: 2000 to 20000 nM; IC50 [2]: 2000 to 20000 nM; IC50 [4, 5]: > 20000 nM"
O=C(c1ccco1)N(Cc1nccn1Cc1c(F)cccc1Cl)C1CC1 [RU-0048046],< 25%,51 to 74%,< 25%,< 25%,< 100 nM,–
CC(C)CN(Cc1nccn1Cc1ccc(Cl)cc1Cl)C(=O)c1ccccc1F [RU-0055322],< 25%,51 to 74%,26 to 50%,< 25%,< 100 nM,–
Cc1cc(N(C)C2CCCCC2)nc(SCc2cccc(C(=O)N3CCCC3)c2)n1 [RU-0034108],< 25%,26 to 50%,< 25%,< 25%,–,–
COc1ccc(OCC(=O)N2CCOC(Cc3ccccc3)C2)cc1 (stereo not drawn) [RU-0050384],< 25%,< 25%,< 25%,< 25%,–,–
CCCCCCCC(=O)N1CCCC(C(=O)NC2CCCC[C@H]2NC(=O)c2ccccc2C)C1 (stereo partly drawn) [RU-0045756],< 25%,< 25%,26 to 50%,< 25%,–,–
CCNc1nc(NC(C)C)nc(N(C#N)Cc2ccccc2)n1 [RU-0015806],< 25%,26 to 50%,< 25%,26 to 50%,> 1000 nM,–
C=CCN(Cc1nccn1Cc1ccccc1F)C(=O)C1CCCC1 [RU-0058964],26 to 50%,> 75%,26 to 50%,26 to 50%,< 100 nM,–
CCN(CC)C(=O)Oc1ccc2c(ccn2Cc2cccc(C)c2)c1NC(=O)CCCCC(=O)OC [RU-0075445],–,–,–,–,–,inhibition at 4 µM [1]: < 25%; inhibition at 4 µM [2]: < 25%; inhibition at 4 µM [3]: < 25%; inhibition at 4 µM [4]: < 25%
CC(C)Nc1nc(Cl)nc(NCc2ccccc2)n1 [RU-T9],–,–,–,–,–,IC50 [1]: > 220000 nM; IC50 [2]: > 20000 nM; IC50 [4]: > 20000 nM
